Experimental data published in patent publication US12660819B2, “Herbicidal derivatives” (SYNGENTA CROP PROTECTION AG, priority 2020, dated 2026).

Experiments:
Type in all cases: in vivo
[1] = test system: Abutilon theophrasti (ABUTH); assay: Post-emergence Test (glasshouse, percentage damage to the plant); settings: post-emergence spray, 1000 g/ha unless otherwise stated, evaluated after 13 days
How it was run: (§1)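 Seeds sown in pots in glasshouse (24/16 °C day/night, 14 h light, 65% humidity), then sprayed with compound at 1000 g/ha unless stated, from acetone/water 50:50 with 0.5% Tween 20. Damage assessed 13 days later on five-point scale (1=0–20% to 5=81–100%).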

[2] = test system: Amaranthus retoflexus (AMARE); assay: as above; settings: post-emergence spray, 1000 g/ha unless otherwise stated, evaluated after 13 days
How it was run: as §1

[3] = test system: Echinochloa crus-galli (ECHCG); assay: as above; settings: post-emergence spray, 1000 g/ha unless otherwise stated, evaluated after 13 days
How it was run: as §1

[4] = test system: Ipomoea hederacea (IPOHE); assay: as above; settings: post-emergence spray, 1000 g/ha unless otherwise stated, evaluated after 13 days
How it was run: (§2)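 Damage was rated 13 days after treatment and expressed on a five-point scale: 5=81-100%, 4=61-80%, 3=41-60%, 2=21-40%, 1=0-20%. Spray was applied at 1000 g/ha unless otherwise stated, from acetone/water (50:50) with 0.5% Tween 20, to sown pots.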

[5] = test system: Setaria faberi (SETFA); assay: as above; settings: post-emergence spray, 1000 g/ha unless otherwise stated, evaluated after 13 days
How it was run: as §2

[6] = test system: Zea mays (ZEAMX); assay: as above; settings: post-emergence spray, 1000 g/ha unless otherwise stated, evaluated after 13 days
How it was run: as §2

[7] = test system: Amaranthus retoflexus (AMARE); assay: Pre-emergence Test (glasshouse, percentage damage to the plant); settings: 1000 g/ha unless otherwise stated, five-point scale
[8] = test system: Setaria faberi (SETFA); assay: as above; settings: 1000 g/ha unless otherwise stated, five-point scale
[9] = test system: Echinochloa crus-galli (ECHCG); assay: as above; settings: 1000 g/ha unless otherwise stated, five-point scale
[10] = test system: Ipomoea hederacea (IPOHE); assay: as above; settings: 1000 g/ha unless otherwise stated, five-point scale
[11] = test system: Abutilon theophrasti (ABUTH); assay: as above; settings: 1000 g/ha unless otherwise stated, five-point scale
[12] = test system: Zea mays (ZEAMX); assay: as above; settings: 1000 g/ha unless otherwise stated, five-point scale

Structure (SMILES) | Post-emergence Test ABUTH, percentage damage to the plant (five-point scale) [1] | Post-emergence Test AMARE, percentage damage to the plant (five-point scale) [2] | Post-emergence Test ECHCG, percentage damage to the plant (five-point scale) [3] | Post-emergence Test IPOHE, percentage damage to the plant (five-point scale) [4] | Post-emergence Test SETFA, percentage damage to the plant (five-point scale) [5] | Post-emergence Test ZEAMX, percentage damage to the plant (five-point scale) [6] | percentage damage to the plant, AMARE [7] | percentage damage to the plant, SETFA [8] | percentage damage to the plant, ECHCG [9] | percentage damage to the plant, IPOHE [10] | percentage damage to the plant, ABUTH [11] | percentage damage to the plant, ZEAMX [12]
CCn1c(C)c(-c2ccc(SC)cc2)c(=O)c(C(=O)O)c1-c1ccc(Cl)c(Cl)c1 [Compound 93, 2-(3,4-dichlorophenyl)-1-ethyl-6-methyl-5-(4-methylsulfanylphenyl)-4-oxo-pyridine-3-carboxylic acid] | 2 (2=21-40%) | 1 (1=0-20%) | 3 (3=41-60%) | 2 (2=21-40%) | 2 (2=21-40%) | 1 (1=0-20%) | 1 (1=0-20%) | 4 (4=61-80%) | 3 (3=41-60%) | 1 (1=0-20%) | 1 (1=0-20%) | 1 (1=0-20%)
CCn1c(C)c(-c2cc(F)cc(OCC(F)(F)F)c2)c(=O)c(C(=O)O)c1-c1ccc(Cl)c(Cl)c1 [Compound 94, 2-(3,4-dichlorophenyl)-1-ethyl-5-[3-fluoro-5-(2,2,2-trifluoroethoxy)phenyl]-6-methyl-4-oxo-pyridine-3-carboxylic acid] | 1 (1=0-20%) | 1 (1=0-20%) | 1 (1=0-20%) | 1 (1=0-20%) | 1 (1=0-20%) | 1 (1=0-20%) | 1 (1=0-20%) | 1 (1=0-20%) | 1 (1=0-20%) | 1 (1=0-20%) | 1 (1=0-20%) | 1 (1=0-20%)
CCn1c(C)c(-c2ccc(OC(F)(F)F)cc2)c(=O)c(C(=O)O)c1-c1ccc(Cl)c(Cl)c1 [Compound 95, 2-(3,4-dichlorophenyl)-1-ethyl-6-methyl-4-oxo-5-[4-(trifluoromethoxy)phenyl]pyridine-3-carboxylic acid] | 3 (3=41-60%) | 3 (3=41-60%) | 3 (3=41-60%) | 2 (2=21-40%) | 3 (3=41-60%) | 2 (2=21-40%) | 1 (1=0-20%) | 4 (4=61-80%) | 2 (2=21-40%) | 1 (1=0-20%) | 1 (1=0-20%) | 1 (1=0-20%)
CCOc1ccc(-c2c(C)n(CC)c(-c3ccc(Cl)c(Cl)c3)c(C(=O)O)c2=O)cc1 [Compound 96, 2-(3,4-dichlorophenyl)-5-(4-ethoxyphenyl)-1-ethyl-6-methyl-4-oxo-pyridine-3-carboxylic acid] | 4 (4=61-80%) | 1 (1=0-20%) | 2 (2=21-40%) | 3 (3=41-60%) | 3 (3=41-60%) | 2 (2=21-40%) | 1 (1=0-20%) | 2 (2=21-40%) | 1 (1=0-20%) | 1 (1=0-20%) | 1 (1=0-20%) | 1 (1=0-20%)
CCOc1cccc(-c2c(C)n(CC)c(-c3ccc(Cl)c(Cl)c3)c(C(=O)O)c2=O)c1 [Compound 98, 2-(3,4-dichlorophenyl)-5-(3-ethoxyphenyl)-1-ethyl-6-methyl-4-oxo-pyridine-3-carboxylic acid] | 2 (2=21-40%) | 1 (1=0-20%) | 1 (1=0-20%) | 2 (2=21-40%) | 1 (1=0-20%) | 1 (1=0-20%) | 2 (2=21-40%) | 3 (3=41-60%) | 1 (1=0-20%) | 1 (1=0-20%) | 1 (1=0-20%) | 1 (1=0-20%)
CCn1c(C)c(-c2ccc(OC)c(OC)c2)c(=O)c(C(=O)O)c1-c1ccc(Cl)c(Cl)c1 [Compound 99, 2-(3,4-dichlorophenyl)-5-(3,4-dimethoxyphenyl)-1-ethyl-6-methyl-4-oxo-pyridine-3-carboxylic acid] | 3 (3=41-60%) | 3 (3=41-60%) | 4 (4=61-80%) | 2 (2=21-40%) | 4 (4=61-80%) | 2 (2=21-40%) | 2 (2=21-40%) | 4 (4=61-80%) | 3 (3=41-60%) | 1 (1=0-20%) | 2 (2=21-40%) | 2 (2=21-40%)
CCn1c(C)c(-c2ccc(OC)c(C)c2)c(=O)c(C(=O)O)c1-c1ccc(Cl)c(Cl)c1 [Compound 100, 2-(3,4-dichlorophenyl)-1-ethyl-5-(4-methoxy-3-methyl-phenyl)-6-methyl-4-oxo-pyridine-3-carboxylic acid] | 3 (3=41-60%) | 2 (2=21-40%) | 1 (1=0-20%) | 1 (1=0-20%) | 3 (3=41-60%) | 3 (3=41-60%) | 1 (1=0-20%) | 4 (4=61-80%) | 1 (1=0-20%) | 1 (1=0-20%) | 1 (1=0-20%) | 1 (1=0-20%)
CCn1c(C)c(-c2ccc(OC)c(Cl)c2)c(=O)c(C(=O)O)c1-c1ccc(Cl)c(Cl)c1 [Compound 101, 5-(3-chloro-4-methoxy-phenyl)-2-(3,4-dichlorophenyl)-1-ethyl-6-methyl-4-oxo-pyridine-3-carboxylic acid] | 3 (3=41-60%) | 3 (3=41-60%) | 3 (3=41-60%) | 2 (2=21-40%) | 3 (3=41-60%) | 2 (2=21-40%) | 2 (2=21-40%) | 4 (4=61-80%) | 2 (2=21-40%) | 1 (1=0-20%) | 2 (2=21-40%) | 2 (2=21-40%)
CCn1c(C)c(-c2ccc(OC)c(F)c2)c(=O)c(C(=O)O)c1-c1ccc(Cl)c(Cl)c1 [Compound 102, 2-(3,4-dichlorophenyl)-1-ethyl-5-(3-fluoro-4-methoxy-phenyl)-6-methyl-4-oxo-pyridine-3-carboxylic acid] | 3 (3=41-60%) | 3 (3=41-60%) | 3 (3=41-60%) | 3 (3=41-60%) | 4 (4=61-80%) | 1 (1=0-20%) | 2 (2=21-40%) | 4 (4=61-80%) | 2 (2=21-40%) | 3 (3=41-60%) | 3 (3=41-60%) | 1 (1=0-20%)
